The source of these data is a melting point compilation (Tetko et al.; mined from patent text by program, amines drawn as free bases though some values may be those of a salt).

One may read the melting point as the temperature of the solid-liquid transition. For the compound `Cn1nnc(-c2ccc3c(c2)S(=O)(=O)c2ccccc2C3=O)n1`, the melting point was 204 to 205 °C.
As for `CC(=O)OC1CSC(Oc2ccc(C#N)nc2)C(OC(C)=O)C1OC(C)=O` (stereo unspecified), the melting point was 147 °C.
Then `CC(=O)NCCc1ccc(NC(=O)C=C2CC(C(=O)OCc3ccccc3)Nc3cc(Cl)cc(Cl)c32)cc1` (racemic), with 235 to 238 °C.
Then `Nc1ncc2[nH]c3ccccc3c2n1`, with 258 to 260 °C; and `OCCSSc1nc2ccccc2s1`, with 65 to 68 °C; and `N#CC1CN1C(=O)c1ccc(S(N)(=O)=O)cc1` (stereo unspecified), with 145 to 146 °C.
Under `CCC(=O)NCC1CC1c1cccc2nc(C(F)(F)F)cn12` (stereo unspecified) stands 148 to 151 °C; under `COc1ccc(C(=O)C2CCC(CCO)CC2)cc1O` (stereo unspecified), 107 to 109 °C.
Compound `OC[C@@H]1O[C@H](n2c(NC3CC3)nc3c(Cl)c(Cl)c(Cl)cc32)[C@@H](O)[C@H]1O` registered a melting point of 208 to 209 °C.
As for `CCNC(=O)Nc1cn(-c2cccnc2)nc1C`, the melting point is 197 to 200 °C.
Under `CC(C)C(=O)NC1CCc2c(c3cc(-c4nnc(N)s4)ccc3n2Cc2cccc(F)c2)C1` (stereo unspecified) stands 251 to 254 °C.
`CC(=O)NC(=O)C(Cl)C(C)=O` (stereo unspecified) had a melting point of 54 to 58 °C.
Then `Cc1oc(-c2ccccc2)nc1COc1ccc(COc2ncccc2C#N)cc1`, with 119 to 120 °C; and `O=C(Nc1cccc2c(=O)cc(-c3nnn[nH]3)oc12)c1ccc2c(c1)CC(COCc1ccccc1)O2` (stereo unspecified), with 200 to 202 °C; and `CC12CCC3C(CCC4=C(N)C(=O)CCC43C)C1CCC2=O` (stereo unspecified), with 186 to 188 °C.
With `CC(C)C(NC(=O)OCc1ccccc1)C(=O)NC(Cc1ccc(OCCN2CCOCC2)cc1)C(=O)C(F)(F)C(=O)NCc1ccccc1` (stereo unspecified), the melting point is 142 °C.
Under `CCNc1ccccc1Nc1c(C(=O)O)cnc2c1cnn2CC` stands 224 to 226 °C; under `COc1cccc(Cc2cc3ccc4ccccc4n3n2)c1`, 82 to 84 °C.
Then `C=C(C)C(=O)OC(C1CCCC1)C(O)(C(F)(F)F)C(F)(F)F` (stereo unspecified), with 59 °C; and `Cc1cc(C(C)(C)C)cc(C=NO)c1O`, with 107 to 108 °C.
On to `Cc1c(CN2CCOCC2)ccc2c1-c1[nH]nc(-c3ccsc3)c1C2`, for which the melting point was in the range of 272 to 274 °C.
Under `CNC(=S)C1(c2cccnc2)CCCCC1=CCO` (stereo unspecified) stands 172 to 173 °C.
Then `COCC1(C)Oc2ccc(C#N)cc2C(n2ccccc2=O)C1O` (stereo unspecified), with 210 to 212 °C.
Compound `CCOC(=O)C=Cc1ccc(C#CC2(O)CN3CCC2CC3)c(OCC)c1` (stereo unspecified) registered a melting point of 152 to 153 °C.
Then `OC(CN1CCN(c2ccccn2)CC1)(Cn1cncn1)c1ccc(Cl)cc1Cl` (stereo unspecified), with 116 to 118 °C.
Then `COc1cc2cc3ncc(C#N)c(Nc4ccc(Cl)cc4Cl)c3cc2cc1OC`, with 271 to 273 °C.
In the case of `CC1(C)SC2C(NC(=O)Cc3ccccc3)C(=O)N2C1NC(=O)OCC(Cl)(Cl)Cl` (stereo unspecified), the melting point lay within 223 to 224 °C.
Then `COc1ccccc1C(=O)Nc1ccc(-n2nc(C(F)(F)F)cc2C(F)(F)F)cc1`, with 100 to 102 °C; and `Cn1cnc2c(Cl)nccc21`, with 127 to 131 °C; and `OCCCN1CCN(c2ccccc2)CC1`, with 72 to 73 °C.
`CN1C(C)(C)CC(NC(=O)c2ccc(-c3nc4cc(Cl)c(Cl)cc4[nH]3)cc2)CC1(C)C` gave a melting point of over 280 °C.
In the case of `NC1CCN(c2cnccn2)CC1`, the melting point fell in the range of 158 to 160 °C.
The compound `FC(F)(F)c1cc(C(F)(F)F)n(-c2ccc(Nc3noc4ccccc34)cc2)n1` gave a melting point of 209 to 210 °C.
As to `CSC(=C[N+](=O)[O-])NCCCCc1c[nH]cn1`, the melting point was 157 to 158 °C.
Then `Cc1ccc(C(=O)Oc2ccc(C(CN(C)C)C3(O)CCCCC3)cc2)cc1` (stereo unspecified), with 159 to 162 °C.
Regarding `CC(Nc1nc(Cl)nc2c1cnn2-c1ccccc1)C(O)c1ccccc1` (stereo unspecified), the melting point was 164 to 165 °C.
